One compound from PMC10073473, “Integrative omics-analysis of lipid metabolism regulation by peroxisome proliferator-activated receptor a and b agonists in male Atlantic cod” (Frontiers in Physiology, 2023) can be followed below.

Molecules are shown by their SMILES. pEC50: −log10 of the molar value.

In the assay the target is T1, Pparb (gmPparb) (Gadus morhua, UniProt A0A8C4ZA29).
T1 construct: gene PPARD
T1 sequence (A0A8C4ZA29 216-511 limits assumed): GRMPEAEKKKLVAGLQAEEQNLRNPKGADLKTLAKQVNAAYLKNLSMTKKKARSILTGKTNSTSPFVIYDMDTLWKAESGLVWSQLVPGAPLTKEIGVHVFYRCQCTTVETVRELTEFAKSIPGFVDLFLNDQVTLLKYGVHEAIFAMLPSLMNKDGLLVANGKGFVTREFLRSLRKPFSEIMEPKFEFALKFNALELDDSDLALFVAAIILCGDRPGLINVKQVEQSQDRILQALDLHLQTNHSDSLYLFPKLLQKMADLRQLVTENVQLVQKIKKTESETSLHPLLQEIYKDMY
Nature of the assay: GAL4-LBD luciferase reporter gene assay in COS-7 cells. Format: cell-based. (In general: In a reporter assay the amount or activity of a reporter protein is the signal.)

With `Cc1cc(SCc2sc(-c3ccc(C(F)(F)F)cc3)nc2C)ccc1OCC(=O)O` [GW501516, 2-[2-Methyl-4-[[[4-methyl-2-[4-(trifluoromethyl)phenyl]-5-thiazolyl]methyl]thio]phenoxy]-acetic acid], the pEC50 (usually the EC50 on a negative log10 scale, so that one unit is a factor of ten) is 5.23.
